Test results from paper PMC9944328 (Nature Communications, 2023).
Where “and” joins values, the source holds several entries; their conditions need not be identical. Equal entries are not always repeated.

Molecular target: SSTR2 (Homo sapiens, UniProt P30874)
Assay: NanoBiT β-arrestin 1 recruitment assay, HEK293 (SSTR2 wild-type);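 on Bottom (best-fit): percent of maximal wild-type response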;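 on Bottom: percent of maximal wild-type response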;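 on Span (best-fit value): percent of maximal wild-type response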;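 on Span (best-fit): percent of maximal wild-type response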;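 on Span: percent of maximal wild-type response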;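 on Top (best-fit value): percent of maximal wild-type response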;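 on Top (best-fit): percent of maximal wild-type response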;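 on Top: percent of maximal wild-type response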
Assay type: cell-based
Design: Human full-length SSTR wild-type and mutant vectors were C-terminally fused; expressed in transfected cells; host or cells: HEK293; Best-fit values Bottom / Best-fit values Top / Best-fit values Span / Best-fit Bottom / Best-fit Top / Best-fit Span: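 percent of maximal wild-type response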
Details: for Span (best-fit value) / Top (best-fit value): β-arrestin1 recruitment
Description: The NanoBiT β-arrestin 1 recruitment assays were carried out according to the method described previously. […] Human full-length SSTR wild-type and mutant vectors were C-terminally fused with a 15-amino acid flexible linker and the small fragment (SmBiT). HEK293 cells were seeded into six-well microplates at a density of 1.0 × 10^6 cells/well and cultured for 24 h at 37 °C with 5% CO2. After that, cells were co-transfected with pcDNA3.1+ vectors encoding SSTR wild-type or mutants and human β-arrestin 1. After transfecting for 24 h, the transfected cells were suspended and seeded into white 96-well plates, and then cultured at 37 °C overnight. After that the medium in each well was exchanged for 90 μl of 0.01% bovine serum albumin containing 20 μl of 50 μM coelenterazine h (Carbosynth) diluted in the HBSS assay buffer and incubated for 40 min at room temperature. Then, ligands diluted in the assay buffer was added to each well and the luminescence intensity was measured using the Synergy H1 microplate reader and detected at room temperature in a time period. All data presented are means of at least three independent experiments.

[1] = D122A set WT-3 = Q126A/Y205A set WT-2 = F208A set WT-3
[2] = F127A set WT-1 = I130A set WT-2
[3] = F127A set WT-3 = I130A set WT-1
[4] = Q126A/I130A set WT-3 = F127A set WT-2
[5] = SSTR2 WT-1 (run 1 of WT in the mutant's section)
[6] = SSTR2 WT-2 (run 2 of WT in the mutant's section)
[7] = SSTR2 WT-3 (run 3 of WT in the mutant's section)
[8] = best-fit value, WT-1 (run 1, WT of each mutant's batch)
[9] = best-fit value, WT-2 (run 2, WT of each mutant's batch)
[10] = best-fit value, WT-3 (run 3, WT of each mutant's batch)

Sequence of SSTR2 (P30874 whole entry): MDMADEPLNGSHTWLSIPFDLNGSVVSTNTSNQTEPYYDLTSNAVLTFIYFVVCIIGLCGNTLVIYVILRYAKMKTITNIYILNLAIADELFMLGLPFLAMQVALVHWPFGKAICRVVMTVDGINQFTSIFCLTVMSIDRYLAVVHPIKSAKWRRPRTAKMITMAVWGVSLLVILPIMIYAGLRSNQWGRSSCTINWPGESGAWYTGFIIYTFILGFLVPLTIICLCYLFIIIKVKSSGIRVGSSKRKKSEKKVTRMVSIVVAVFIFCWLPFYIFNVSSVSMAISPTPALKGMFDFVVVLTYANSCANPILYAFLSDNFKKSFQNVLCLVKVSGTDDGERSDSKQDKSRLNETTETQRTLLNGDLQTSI
Sequence of SSTR2 (P49407 whole entry partner): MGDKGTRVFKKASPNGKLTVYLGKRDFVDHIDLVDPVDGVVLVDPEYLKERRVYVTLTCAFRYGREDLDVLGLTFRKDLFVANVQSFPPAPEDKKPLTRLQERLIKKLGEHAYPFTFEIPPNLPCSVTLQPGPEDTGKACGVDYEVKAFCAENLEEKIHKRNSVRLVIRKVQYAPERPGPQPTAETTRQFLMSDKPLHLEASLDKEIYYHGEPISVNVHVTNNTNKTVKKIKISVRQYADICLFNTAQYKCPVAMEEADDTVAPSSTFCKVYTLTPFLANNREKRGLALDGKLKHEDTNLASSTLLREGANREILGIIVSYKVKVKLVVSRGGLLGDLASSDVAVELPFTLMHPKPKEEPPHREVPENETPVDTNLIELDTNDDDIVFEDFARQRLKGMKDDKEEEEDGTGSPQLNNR

Structure (SMILES): C[C@@H](O)[C@@H]1NC(=O)[C@H](CCCCN)NC(=O)[C@@H](Cc2c[nH]c3ccccc23)NC(=O)[C@H](Cc2ccccc2)NC(=O)[C@@H](NC(=O)[C@H](N)Cc2ccccc2)CSSC[C@@H](C(=O)N[C@H](CO)[C@@H](C)O)NC1=O [octreotide]
- Bottom (best-fit) (D122A set WT-1): 12.18
- Span (best-fit) (D122A set WT-1): 93.68
- Top (best-fit) (D122A set WT-1): 105.9
- Bottom (best-fit) (D122A set WT-2): 4.265
- Span (best-fit) (D122A set WT-2): 83.04
- Top (best-fit) (D122A set WT-2): 87.31
- Bottom (best-fit) [1]: -0.5169
- Span (best-fit) [1]: 99.09
- Top (best-fit) [1]: 98.58
- Bottom (best-fit) [2]: -0.5804
- Span (best-fit) [2]: 101.3
- Top (best-fit) [2]: 100.7
- Bottom (best-fit) [3]: -0.2332
- Span (best-fit) [3]: 101
- Top (best-fit) [3]: 100.8
- Bottom (best-fit) (F208A set WT-1): -0.7342
- Span (best-fit) (F208A set WT-1): 99.34
- Top (best-fit) (F208A set WT-1): 98.6
- Bottom (best-fit) (F208A set WT-2): -1.061
- Span (best-fit) (F208A set WT-2): 99.77
- Top (best-fit) (F208A set WT-2): 98.71
- Emax (HEK293): 100%
- Bottom (best-fit) (Q126A set WT-1): -2.277
- Span (best-fit) (Q126A set WT-1): 105
- Top (best-fit) (Q126A set WT-1): 102.7
- Bottom (best-fit) [4]: 0.158
- Span (best-fit) [4]: 100.8
- Top (best-fit) [4]: 100.9
- Span (best-fit value) [5]: 93.68 and 99.09 and 83.04 and 90.27 and 99.77
- Top (best-fit value) [5]: 105.9 and 98.58 and 87.31 and 89.81 and 98.2
- Span (best-fit value) [6]: 83.04 and 105 and 80.44 and 93.46 and 96.97
- Top (best-fit value) [6]: 87.31 and 102.7 and 85.95 and 93.4 and 96.99
- Span (best-fit value) [7]: 99.09 and 101.1 and 95.18 and 96.4
- Top (best-fit value) [7]: 98.58 and 97.65 and 95.41 and 96.36
- Best-fit values Bottom (WT-1 (F265A set)): 0.158
- Best-fit values Span (WT-1 (F265A set)): 100.8
- Best-fit values Top (WT-1 (F265A set)): 100.9
- Best-fit values Bottom (WT-1 (F272A set)): 4.265
- Best-fit values Span (WT-1 (F272A set)): 83.04
- Best-fit values Top (WT-1 (F272A set)): 87.31
- Best-fit values Bottom (WT-1 (K291A set)): 12.18
- Best-fit values Bottom (WT-1 (N276A set)): 12.18
- Best-fit values Span (WT-1 (N276A set)): 93.68
- Best-fit values Top (WT-1 (N276A set)): 105.9
- Best-fit values Bottom (WT-1 (P220A set)): 1.374
- Best-fit values Span (WT-1 (P220A set)): 94.44
- Best-fit values Top (WT-1 (P220A set)): 95.82
- Best-fit values Bottom (WT-1 (W269A set)): -1.494
- Best-fit values Span (WT-1 (W269A set)): 99.94
- Best-fit values Top (WT-1 (W269A set)): 98.45
- Best-fit values Bottom (WT-2 (F265A set)): -0.2332
- Best-fit values Span (WT-2 (F265A set)): 101
- Best-fit values Top (WT-2 (F265A set)): 100.8
- Best-fit values Bottom (WT-2 (F272A set)): 12.18
- Best-fit values Span (WT-2 (F272A set)): 93.68
- Best-fit values Top (WT-2 (F272A set)): 105.9
- Best-fit values Bottom (WT-2 (K291A set)): 4.265
- Best-fit values Bottom (WT-2 (N276A set)): 4.265
- Best-fit values Span (WT-2 (N276A set)): 83.04
- Best-fit values Top (WT-2 (N276A set)): 87.31
- Best-fit values Bottom (WT-2 (P220A set)): -0.5804
- Best-fit values Span (WT-2 (P220A set)): 101.3
- Best-fit values Top (WT-2 (P220A set)): 100.7
- Best-fit values Bottom (WT-2 (W269A set)): 12.18
- Best-fit values Span (WT-2 (W269A set)): 93.68
- Best-fit values Top (WT-2 (W269A set)): 105.9
- Best-fit values Bottom (WT-3 (F265A set)): -0.5804
- Best-fit values Span (WT-3 (F265A set)): 101.3
- Best-fit values Top (WT-3 (F265A set)): 100.7
- Best-fit values Bottom (WT-3 (F272A set)): -0.5169
- Best-fit values Span (WT-3 (F272A set)): 99.09
- Best-fit values Top (WT-3 (F272A set)): 98.58
- Best-fit values Bottom (WT-3 (K291A set)): -0.5169
- Best-fit values Bottom (WT-3 (N276A set)): -0.5169
- Best-fit values Span (WT-3 (N276A set)): 99.09
- Best-fit values Top (WT-3 (N276A set)): 98.58
- Best-fit values Bottom (WT-3 (P220A set)): -0.2332
- Best-fit values Span (WT-3 (P220A set)): 101
- Best-fit values Top (WT-3 (P220A set)): 100.8
- Best-fit values Bottom (WT-3 (W269A set)): 6.264
- Best-fit values Span (WT-3 (W269A set)): 85.81
- Best-fit values Top (WT-3 (W269A set)): 92.07
- Bottom (best-fit) (Y205A set WT-1): -3.442
- Span (best-fit) (Y205A set WT-1): 101.1
- Top (best-fit) (Y205A set WT-1): 97.65
- Bottom (best-fit) (Y205A set WT-3): 2.142
- Span (best-fit) (Y205A set WT-3): 104.5
- Top (best-fit) (Y205A set WT-3): 106.6
- Span [8]: 99.09 and 101 and 68.4
- Top [8]: 98.58 and 100.8 and 104.3
- Span [9]: 99.09 and 99.34 and 102.9 and 105
- Top [9]: 98.58 and 98.6 and 97.73 and 102.7
- Span [10]: 99.09 and 99.77 and 100.8 and 101.1
- Top [10]: 98.58 and 98.71 and 100.9 and 97.65
- Bottom (best-fit, WT-1 (I284A batch)): 12.18
- Span (best-fit, WT-1 (I284A batch)): 93.68
- Top (best-fit, WT-1 (I284A batch)): 105.9
- Bottom (best-fit, WT-1 (P286A batch)): 5.515
- Span (best-fit, WT-1 (P286A batch)): 80.44
- Top (best-fit, WT-1 (P286A batch)): 85.95
- Bottom (best-fit, WT-1 (S285A batch)): 6.264
- Span (best-fit, WT-1 (S285A batch)): 85.81
- Top (best-fit, WT-1 (S285A batch)): 92.07
- Bottom (best-fit, WT-1 (T194A batch)): -0.5169
- Top (best-fit, WT-1 (T194A batch)): 98.58
- Bottom (best-fit, WT-1 (T287A batch)): 4.265
- Span (best-fit, WT-1 (T287A batch)): 83.04
- Top (best-fit, WT-1 (T287A batch)): 87.31
- Bottom (best-fit, WT-1 (W188A batch)): 6.264
- Span (best-fit, WT-1 (W188A batch)): 85.81
- Top (best-fit, WT-1 (W188A batch)): 92.07
- Bottom (best-fit, WT-2 (I284A batch)): -1.639
- Span (best-fit, WT-2 (I284A batch)): 102.1
- Top (best-fit, WT-2 (I284A batch)): 100.5
- Bottom (best-fit, WT-2 (P286A batch)): 4.265
- Span (best-fit, WT-2 (P286A batch)): 83.04
- Top (best-fit, WT-2 (P286A batch)): 87.31
- Bottom (best-fit, WT-2 (S285A batch)): 12.18
- Span (best-fit, WT-2 (S285A batch)): 93.68
- Top (best-fit, WT-2 (S285A batch)): 105.9
- Bottom (best-fit, WT-2 (T194A batch)): -0.7342
- Top (best-fit, WT-2 (T194A batch)): 98.6
- Bottom (best-fit, WT-2 (T287A batch)): 5.515
- Span (best-fit, WT-2 (T287A batch)): 80.44
- Top (best-fit, WT-2 (T287A batch)): 85.95
- Bottom (best-fit, WT-2 (W188A batch)): -0.5169
- Span (best-fit, WT-2 (W188A batch)): 99.09
- Top (best-fit, WT-2 (W188A batch)): 98.58
- Bottom (best-fit, WT-3 (I284A batch)): 6.264
- Span (best-fit, WT-3 (I284A batch)): 85.81
- Top (best-fit, WT-3 (I284A batch)): 92.07
- Bottom (best-fit, WT-3 (P286A batch)): 4.265
- Span (best-fit, WT-3 (P286A batch)): 83.04
- Top (best-fit, WT-3 (P286A batch)): 87.31
- Bottom (best-fit, WT-3 (S285A batch)): 4.265
- Span (best-fit, WT-3 (S285A batch)): 83.04
- Top (best-fit, WT-3 (S285A batch)): 87.31
- Bottom (best-fit, WT-3 (T194A batch)): -1.061
- Top (best-fit, WT-3 (T194A batch)): 98.71
- Bottom (best-fit, WT-3 (T287A batch)): -0.5169
- Span (best-fit, WT-3 (T287A batch)): 99.09
- Top (best-fit, WT-3 (T287A batch)): 98.58
- Bottom (best-fit, WT-3 (W188A batch)): 12.18
- Span (best-fit, WT-3 (W188A batch)): 93.68
- Top (best-fit, WT-3 (W188A batch)): 105.9
